From patent US4177277A, “Method for alleviating hypertension” (E. R. Squibb & Sons, Inc., priority 1978, dated 1979)
In brackets after ≈: the same amount, converted by molar mass. Non-standard residues stand in square brackets, D forms with d. Residues, ends and D or L forms follow the SMILES beside them.

Experiments:
[1] = target: T1, angiotensin-converting enzyme of rabbit lung (Oryctolagus cuniculus, UniProt P12822); experiment: Inhibition of isolated angiotensin-converting enzyme of rabbit lung (cleavage of hippuryl-L-histidyl-L-leucine); type: biochemical; settings: 5 mM hippuryl-L-histidyl-L-leucine, pH 8.3, 30 minutes at 37° C., read-out: I50 (concentration producing a 50% inhibition of angiotensin-converting enzyme) (converted)
T1 construct: isolated angiotensin converting enzyme from rabbit lungs; from tissue; host or cells: rabbit lung
T1 sequence (P12822 34-1310): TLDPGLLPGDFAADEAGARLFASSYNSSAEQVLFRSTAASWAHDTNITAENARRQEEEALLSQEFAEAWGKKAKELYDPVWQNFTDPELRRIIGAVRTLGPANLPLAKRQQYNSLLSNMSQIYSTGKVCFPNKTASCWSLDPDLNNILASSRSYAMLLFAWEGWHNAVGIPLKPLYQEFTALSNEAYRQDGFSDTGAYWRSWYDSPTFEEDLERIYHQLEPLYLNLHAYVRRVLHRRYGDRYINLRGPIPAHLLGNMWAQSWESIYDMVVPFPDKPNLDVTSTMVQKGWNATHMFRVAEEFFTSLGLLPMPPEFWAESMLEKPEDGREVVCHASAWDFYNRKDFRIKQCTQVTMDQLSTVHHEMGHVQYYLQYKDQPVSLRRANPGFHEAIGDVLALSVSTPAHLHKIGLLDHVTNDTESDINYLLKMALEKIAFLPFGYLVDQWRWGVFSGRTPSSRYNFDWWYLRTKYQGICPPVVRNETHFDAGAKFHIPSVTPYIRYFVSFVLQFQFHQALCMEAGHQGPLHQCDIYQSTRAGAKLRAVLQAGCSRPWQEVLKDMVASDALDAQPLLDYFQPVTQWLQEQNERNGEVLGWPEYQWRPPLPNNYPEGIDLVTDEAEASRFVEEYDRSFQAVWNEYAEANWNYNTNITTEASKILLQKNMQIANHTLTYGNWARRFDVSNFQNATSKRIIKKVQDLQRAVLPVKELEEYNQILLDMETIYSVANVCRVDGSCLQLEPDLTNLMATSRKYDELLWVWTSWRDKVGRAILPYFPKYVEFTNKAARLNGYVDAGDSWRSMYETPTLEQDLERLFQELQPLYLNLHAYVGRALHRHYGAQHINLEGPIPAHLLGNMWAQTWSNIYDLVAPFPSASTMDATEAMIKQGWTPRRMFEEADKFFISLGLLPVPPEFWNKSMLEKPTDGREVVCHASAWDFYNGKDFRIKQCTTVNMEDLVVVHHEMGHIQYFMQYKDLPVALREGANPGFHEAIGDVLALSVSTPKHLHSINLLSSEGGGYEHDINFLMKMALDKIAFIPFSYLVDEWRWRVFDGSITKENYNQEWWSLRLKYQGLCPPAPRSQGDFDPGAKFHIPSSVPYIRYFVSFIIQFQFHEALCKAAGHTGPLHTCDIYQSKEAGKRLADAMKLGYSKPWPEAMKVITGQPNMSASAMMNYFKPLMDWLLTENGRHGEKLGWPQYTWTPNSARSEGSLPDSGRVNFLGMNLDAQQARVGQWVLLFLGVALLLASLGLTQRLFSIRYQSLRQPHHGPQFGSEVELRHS
Source text: Although conversion of angiotensin I to angiotensin II by angiotensin-converting enzyme is probably the reaction of most importance in the pathology of hypertension, the activity of the isolated enzyme is more conveniently and accurately assayed by measuring its rate of cleavage of a simpler peptide substrate, hippuryl-L-histidyl-L-leucine. […] Controls containing no inhibitor (100% activity), and those acidified before addition of the enzyme (0% activity) are similarly prepared. All of the enzymatic reations are initiated by addition of the enzyme component; tubes are incubated for 30 minutes at 37° C.; and reactions are terminated by addition of 0.25 ml. of 1 N HCl. The hippuric acid formed by action of angiotensin-converting enzyme on hippuryl-L-histidyl-L-leucine is extracted into ethyl acetate, evaporated to dryness, redissolved in water and quantitated from its absorbance at 228 nm. The percent inhibition by each concentration of compound is calculated by comparison with the 0% and 100% activity controls.

[2] = test system: angiotensin I converting enzyme in excised guinea pig ileum; experiment: Inhibition of angiotensin I converting enzyme in excised guinea pig ileum (contractile activity of angiotensin I); type: cell-based; settings: Cavia porcellus, Krebs solution at 37°, angiotensin I added after two minutes, read-out: IC50 (inhibition of the contractile activity of angiotensin I by 50%)
Description: After two minutes, angiotensin I ([…]) is added and the isotonic contractions are measured.

[3] = test system: normotensive rats; settings: Ripa 1970; cited from earlier work
[4] = test system: anesthetized normotensive rats; settings: intravenous injection, Schulze 1972; cited from earlier work
[5] = Fujimura et al. 1964; cited from earlier work
[6] = test system: angiotensin I pressor response; experiment: Inhibition of angiotensin I pressor response in unanesthetized rats after oral administration; type: in vivo, rats of the Sprague-Dawley strain; settings: unanesthetized male Sprague-Dawley rats, 0.31 μg/kg angiotensin I, 2 animals
Description: A representative compound of the present invention administered orally at doses of 10 and 100 mg/kg to unanesthetized male rats of the Sprague-Dawley strain weighing about 200 g., followed by an injection of 0.31 μg/kg of angiotensin I, indicates the following degree of inhibition obtained.

CC(=O)NC(CSC(C)=O)C(=O)N1CCC[C@H]1C(=O)O (mixture of isomers) [N,S-Diacetyl-DL-cysteinyl-L-proline]
IC50 [1]: 72800 nM
IC50 [2]: 23 µg/mL

CC(=O)NC(CS)C(=O)N1CCC[C@H]1C(=O)O (mixture of isomers) [N-Acetyl-DL-cysteinyl-L-proline]
IC50 [1]: 1150 nM
IC50 [2]: 0.6 µg/mL

NCCCC(CS)C(=O)N1CCC[C@H]1C(=O)O (mixture of isomers) [1-(5-Amino-2-mercaptomethylpentanoyl)-L-proline]
IC50 [1]: 69.1 nM
IC50 [2]: 0.47 µg/mL (≈ 1.81 µM)

CC(S)C(=O)NCC(=O)O (stereo not shown) [2-mercaptopropionyl-glycine]
angiotensinogen [3]: increases angiotensinogen
renin blood levels [3]: lowers renin blood levels
lowering of the blood pressure [4]: produced lowering of the blood pressure
effects on blood pressure [5]: no noticeable effects on blood pressure

N[C@H](CS)C(=O)N1CCC[C@H]1C(=O)O [D-Cysteinyl-L-proline] (H-[dC]-Pro-OH)
IC50 [1]: 596 nM
IC50 [2]: 0.05 µg/mL (≈ 0.229 µM)
% maximum inhibition of angiotensin I pressor response ([6]; 10 mg/kg orally): 62%
% maximum inhibition of angiotensin I pressor response ([6]; 100 mg/kg orally): 95%

N[C@@H](CS)C(=O)N1CCC[C@H]1C(=O)O [L-Cysteinyl-L-proline] (H-Cys-Pro-OH)
IC50 [1]: 36700 nM
IC50 [2]: 23 µg/mL (≈ 105 µM)
